From article PMC3281519 (Journal of Medicinal Chemistry, 2011) come the findings set out here.

Series [1] deals with T1, recombinant human sEH (Homo sapiens, UniProt P34913).
T1 sequence (P34913 1-555): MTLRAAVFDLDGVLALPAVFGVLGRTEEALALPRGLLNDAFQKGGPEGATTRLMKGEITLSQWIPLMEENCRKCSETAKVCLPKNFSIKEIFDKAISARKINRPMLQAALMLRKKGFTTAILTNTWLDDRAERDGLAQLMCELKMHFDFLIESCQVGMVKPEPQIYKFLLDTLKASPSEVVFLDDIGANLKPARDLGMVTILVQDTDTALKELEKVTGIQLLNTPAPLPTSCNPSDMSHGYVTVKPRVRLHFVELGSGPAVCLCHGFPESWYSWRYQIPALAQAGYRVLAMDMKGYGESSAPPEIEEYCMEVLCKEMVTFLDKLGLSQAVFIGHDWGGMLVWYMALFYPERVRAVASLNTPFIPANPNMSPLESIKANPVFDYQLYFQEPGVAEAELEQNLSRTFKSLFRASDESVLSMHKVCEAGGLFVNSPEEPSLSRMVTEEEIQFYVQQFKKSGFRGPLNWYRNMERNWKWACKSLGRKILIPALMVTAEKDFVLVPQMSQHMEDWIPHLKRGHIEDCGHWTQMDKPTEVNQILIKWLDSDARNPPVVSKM
As to the kind of experiment: sEH IC50 kinetic fluorescent assay. Type of series: biochemical.

For series [2], the target named is T2, human recombinant COX-2 (Homo sapiens, UniProt P35354).
T2 sequence (P35354 18-604): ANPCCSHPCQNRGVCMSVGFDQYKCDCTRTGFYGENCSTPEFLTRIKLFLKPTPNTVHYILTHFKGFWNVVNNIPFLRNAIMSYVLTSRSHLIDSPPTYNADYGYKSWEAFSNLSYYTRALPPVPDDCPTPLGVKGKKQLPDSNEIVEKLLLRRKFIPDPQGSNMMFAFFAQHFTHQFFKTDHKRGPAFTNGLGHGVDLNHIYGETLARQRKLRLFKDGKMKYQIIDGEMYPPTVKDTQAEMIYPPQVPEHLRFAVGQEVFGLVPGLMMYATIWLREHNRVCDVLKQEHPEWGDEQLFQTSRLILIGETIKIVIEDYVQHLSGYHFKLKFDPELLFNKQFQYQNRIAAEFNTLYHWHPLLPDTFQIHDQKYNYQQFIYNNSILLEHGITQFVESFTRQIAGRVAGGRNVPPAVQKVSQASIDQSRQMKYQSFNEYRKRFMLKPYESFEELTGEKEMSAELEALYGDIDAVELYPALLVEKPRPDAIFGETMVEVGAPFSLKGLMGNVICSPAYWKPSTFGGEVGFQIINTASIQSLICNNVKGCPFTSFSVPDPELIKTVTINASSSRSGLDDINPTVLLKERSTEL
As to the kind of experiment: COX Fluorescent Inhibitor Screening Assay, COX-2. As to conditions: compared to compound 21b.

Series [3] relates to Sprague-Dawley rats. Type of series: in vivo. As to conditions: rats treated at 10 mg/kg s.c., observed over nine hours.
A short description of series [4]: Pharmacokinetics after oral administration in rats. Type of series: in vivo. As to conditions: rat; compared with 21j.
The subject of series [5] is U937 cell line. The series is described as follows: Acute toxicity on U937 cell line. Particulars: U937 cells. In kind it is cell-based.
A short description of series [6]: Pharmacokinetic screening by oral cassette dosing in mice. Type of series: in vivo. Particulars: mouse; compared to 21i and 21j.

For `Cc1ccc(-c2cc(CCCNC(=O)Nc3cccc(C(F)(F)F)c3)nn2-c2ccc(S(N)(=O)=O)cc2)cc1` [Compound 21c], the “diminished sEH activity” value in series [1] (compared to compound 21b) amounted to 3 fold. For the same molecule, the “diminished COX-2 activity” value in series [2] is 3 fold.

Take `CS(=O)(=O)c1ccc(-n2nc(CNC(=O)NC3CCCCCC3)cc2-c2ccccc2)cc1` [Compound 11b, 1-Cycloheptyl-3-[1-(4-methanesulfonyl-phenyl)-5-phenyl-1H-pyrazol-3-ylmethyl]-urea]: the “improvement of sEH inhibition” value in series [1] (compared with compound 11a) is on record as 10 fold.

With `NS(=O)(=O)c1ccc(-n2nc(CCCNC(=O)Nc3ccc(C(F)(F)F)cc3)cc2-c2ccccc2)cc1` [Compound 21i, 4-(5-Phenyl-3-{3-[3-(4-trifluoromethyl-phenyl)-ureido]-propyl}-pyrazol-1-yl)-benzenesulfonamide], the “overt signs of behavioral changes or acute toxicity” value in series [3] is on record as “no overt signs of any behavioral changes or acute observable symptoms of toxicity”. In series [4], the “higher Cmax” value is 2 fold. Moreover, in series [5], the “acute toxicity on U937 cell line” value is reported as “did not observe any acute toxicity”.

For `NS(=O)(=O)c1ccc(-n2nc(CCNC(=O)Nc3cccc(C(F)(F)F)c3)cc2-c2ccccc2)cc1` [Compound 15, 4-(5-Phenyl-3-{2-[3-(3-trifluoromethyl-phenyl)-ureido]-ethyl}-pyrazol-1-yl)-benzenesulfonamide], the “improvement of sEH inhibition” value in series [1] (compared to compound 11g) was 3 fold.

As to `NS(=O)(=O)c1ccc(-n2nc(CCCNC(=O)Nc3cccc(C(F)(F)F)c3)cc2-c2ccccc2)cc1` [Compound 21b, 4-(5-Phenyl-3-{3-[3-(3-trifluoromethyl-phenyl)-ureido]-propyl}-pyrazol-1-yl)-benzenesulfonamide], the “improvement of sEH inhibition” value in series [1] (compared to compound 11g) is 20 fold. For the same molecule, in series [6], the “decrease in AUC” value is 8 fold and the “lower Cmax” value was found to be 15 fold.
